# Experimental data from patent US20210093551A1, “Methods Of Use Of Oral Care Compositions Comprising Hops” (The Procter & Gamble Company, priority 2019, published 2021).
# Tested on: plaque biofilm grown from fresh pooled human saliva
# Assay: in vitro plaque glycolysis model (iPGRM): acid production and glycolysis inhibition after treatment of 3-day biofilm
# Format: cell-based, plaque microorganisms from human saliva
# Experimental: Acid production and acid inhibition were determined with the in vitro plaque glycolysis model (iPGRM). The purpose of this technique is to provide a simple and quick method for determining if compounds have an influence on the metabolic pathways that plaque microorganisms utilize to produce toxins that adversely affect gingival health.
# The in vitro plaque glycolysis model (iPGRM) is a technique in which plaque is grown from human saliva and treated with various agents to determine anti-glycolytic activity of treatments. When bacteria convert sugar into energy with the help of enzymes, acids are formed. These acids demineralize and damage the dental enamel. The purpose of this technique is to provide a simple and quick method for determining if treatment compounds have an inhibitory effect on the metabolic pathways that plaque microorganisms utilize for the production of acids or toxins and/or inhibit their growth. […]
# […] The pH of the media solutions was then measured to determine the amount of glycolysis inhibition relative to a negative control.
# On Day 1, new glass rods (5 mm×90 mm) were polished approximately 25 mm from the un-tapered end on a lathe with silicon carbide paper of 240, 320, 400, and 600 grit used sequentially. […] After polishing, rods were stored until ready to run test. […]
compound,measurement,setting,value
"[H]/N=C(\N/C(=N/[H])NCCCCCCNC(=N)NC(=N)Nc1ccc(Cl)cc1)Nc1ccc(Cl)cc1 [1% Chlorhexidine, Chlorhexidine]",Mean Acid Inhibition (%) Mean,"2 min treatment (1:5 in water), glycolysis inhibition relative to negative control (Crest Cavity Protection)",75.12%
same,Acid Production (ΔpH) Mean,"2 min treatment with dentifrice slurry or diluted treatment in water (1:5), ΔpH versus blank vials",0.4 ΔpH
